From patent publication US20050244502A1, “Composition for enhancing absorption of a drug and method” (priority 2004, published 2005)

Experiments:
in vitro = settings: human
in vivo = settings: rat, 1 mg/kg
Text: A dosing solution of DDAVP in water, C971P, LPC or C971P/LPC was directly injected into a 10-cm segment of rat colon. Blood was collected over a 2 hr period to assess the extent of systemic absorption from the various formulations.

Calu-3 cells [1] = test: Permeability (Papp) of DDAVP across Calu-3 cell monolayers on Transwell filters; settings: for additive permeability enhancement or change in epithelial resistance in the presence of Carbopol polymers (in words): enhancer with Carbopol polymers (Example 11)
Calu-3 cells [2] = test: Acute cytotoxicity assay (Alamar Blue) in Calu-3 cells; format: cell-based, human
Text: FIG. 2 depicts an Alamar Blue Assay—Black bar indicates the % of the cell survival after 2 hrs treatment of LPC at 0-0.25%; gray bar indicates the combination of LPC with 0.5% of C971P.
This assay is based on the ability of live cells to enzymatically reduce Alamar blue dye which indicates the relative percentage of cells that survive the exposure to the various treatments. Calu-3 cells exposed to buffer for 2 hr were used as the positive control with 100% cell survival.

Calu-3 cells [3] = test: TEER measurement (cell integrity and reversibility) in Calu-3 cells; format: cell-based, human
Text: The asterisk (delete scatters with) (*) represent (delete marker present) those samples where TEER recovered to the original level within 12 hrs after washout of the treatment.
Transepithelial electrical resistance (TEER) measures the integrity of the epithelial barrier. […] Return of the TEER values to initial levels indicates recovery to baseline barrier properties. TEER measurements were done in confluent highly resistant Calu-3 cells cultured in Transwell filters with handheld STX-2 electrodes connected to EVOM Voltohmmeter. […] After the removal of apical treatment, TEER recovered to the original values.

[4] = Intra-nasal DADLE absorption in rabbits; format: in vivo; settings: DADLE 1 mg/kg via syringe microsprayer in rabbit nostril
Text: Intra-nasal delivery of the model pentapepdide DADLE in water, C971P, LPC or C971P/LPC formulation was studied in rabbits. […] The C971P/LPC formulation enhanced DADLE absorption by >50% compared to LPC alone.

For NC(=O)CC[C@@H]1NC(=O)[C@H](Cc2ccccc2)NC(=O)[C@H](Cc2ccc(O)cc2)NC(=O)CCSSC[C@@H](C(=O)N2CCC[C@H]2C(=O)N[C@H](CCCN=C(N)N)C(=O)NCC(N)=O)NC(=O)[C@H](CC(N)=O)NC1=O [DDAVP, 1 deamino-8-D-arginin-vasopressin], the Papp (in vitro) was 0.4 ± 0.03 nm/s and the bioavailability (in vivo) was 0.1 ± 0.1%.
For CCCCCCCCCC(=O)[O-].[Na+] [sodium caprate], the “additive permeability enhancement or change in epithelial resistance in the presence of Carbopol polymers (in words)” value (Calu-3 cells [1]) was “do not show additive permeability enhancement advantage or change in epithelial resistance” and the “effect of Carbopol 971P on acute cytotoxicity of the enhancer (in words)” value (Calu-3 cells [2]; enhancer combined with Carbopol 971P, Alamar Blue, Calu-3 cells) was “failed to reduce the acute cytotoxicity”.
In the case of Phosphatidylcholine [Lecithin], the “DDAVP permeability enhancement or TEER drop (in words)” value (Calu-3 cells [1]; Carbopol added along with phosphatidylcholine) is reported as “no significant enhancement in permeability or drop in TEER”, the “DDAVP Permeability” value (Calu-3 cells [1]; Lecithin 1 mM) is reported as 0.45 ± 0.03 nm/s and the “DDAVP Permeability” value (Calu-3 cells [1]; Lecithin 2 mM) is reported as 0.44 ± 0.03 nm/s. The “DDAVP Permeability” value (Calu-3 cells [1]; Lecithin 5 mM) was 0.44 ± 0.04 nm/s, the “additive permeability enhancement or change in epithelial resistance in the presence of Carbopol polymers (in words)” value (Calu-3 cells [1]) was “do not show additive permeability enhancement advantage or change in epithelial resistance” and the “DDAVP permeability enhancement or TEER drop (in words)” value (Calu-3 cells [1]; phosphatidylcholine alone, Calu-3 cells) was “failed to show any measurable enhancement or TEER drop”. For the same molecule, the “TEER after 2 hr (% initial)” value (Calu-3 cells [3]; Lecithin 1 mM) was “No change”, the “TEER after 2 hr (% initial)” value (Calu-3 cells [3]; Lecithin 2 mM) was “No change” and the “TEER after 2 hr (% initial)” value (Calu-3 cells [3]; Lecithin 5 mM) was “No change”.
For L-α-lysophosphatidylcholine [LPC], the “DDAVP Papp increase compared with 0.5% C971P alone” value (Calu-3 cells [1]; LPC 0.01-0.25% combined with 0.5% C971P, dose-dependent, Calu-3 cells) was “up to 32 fold”, the “TEER recovery after removal of treatment (in words)” value (Calu-3 cells [3]; 0.05% LPC with C971P also present) was “recovered” and the “TEER change (in words)” value (Calu-3 cells [3]; LPC alone, 2 hr treatment) was “dramatic drop in TEER”. For the same molecule, the “extent of TEER drop (in words)” value (Calu-3 cells [3]; LPC with C971P present in the formulation, 2 hr treatment) was “significantly reduced”, the cell survival (Calu-3 cells [2]; 0.05% LPC alone, 2 hr, buffer control = 100%) was “About 82%” and the cell survival (Calu-3 cells [2]; 0.05% LPC with C971P (0.5%) in the formulation, 2 hr) was 95%. For the same molecule, the cell survival (Calu-3 cells [2]; 0.1% LPC alone, 2 hr) was 41%, the cell survival (Calu-3 cells [2]; 0.1% LPC in the presence of C971P (0.5%), 2 hr) was over 90% and the “cell survival (in words)” value (Calu-3 cells [2]; LPC alone 0-0.25%, 2 hr) was “dose-dependent reduction in survival”. The “DADLE exposure, times higher than water control” value [4] was 2.4 times.
